# Assay results published in article PMC10726441, “Discovery of Tumor-Targeted 6-Methyl Substituted Pemetrexed and Related Antifolates with Selective Loss of RFC Transport” (ACS Medicinal Chemistry Letters, 2023).
# How the values were obtained:
# [1] = system: MTXRIIOuaR2-4 CHO cells (R2; RFC-, PCFT-, and FR-null); test: Cell proliferation assay, transporter-null R2 CHO cells; format: cell-based, Chinese hamster; conditions: Cricetulus griseus, 96 h, 0-1000 nM, mean (standard error), 3-5 experiments
# Description: To assess the impact of 6-methyl substitutions on the bicyclic scaffolds of the pyrrolo[2,3-d]pyrimidine antifolates 1–4 on RFC transport vis-à-vis PCFT, FRα, and FRβ, we used a unique biological readout for transport activity. This involved proliferation assays with isogenic Chinese hamster ovary (CHO) sublines derived from RFC-, FR-, and PCFT-null MTXRIIOua^R2–4 CHO cells[39],[40] engineered to express the human FRα (RT16),[25] FRβ (D4),[25] RFC (PC43–10),[41] or PCFT (R2/PCFT4).[26],[42] As these CHO cell lines are genetically identical except for their folate transporters, differences in inhibition of cell proliferation by specific cytotoxic antifolates directly reflect transporter specificities.[19],[23]−[31],[42] […]
# Reagents for biological studies. Leucovorin [(6R,S) 5-formyl tetrahydrofolate] and methotrexate (MTX) was provided by the Drug Development Branch, National Cancer Institute, Bethesda, MD. Other chemicals were obtained from commercial sources in the highest available purities. Pemetrexed (PMX; 1) [N-{4-[2- (2-amino-3,4-dihydro-4-oxo-7H-pyrrolo[2,3-d]pyrimidin-5-yl)ethyl]benzoyl-L-glutamic acid] (Alimta) was purchased from LC Laboratories (Woburn, MA). The syntheses of compounds 2 and 3 were previously described.7, 8 Additional chemicals were purchased from commercial sources in the highest available purities.
# Cell Culture. The reduced folate carrier (RFC), proton-coupled folate transporter (SLC46A1; PCFT) and folate receptor (FR) α- and β-null Chinese hamster ovary (CHO) cell line MTXRIIOuaR2-49 was a gift from Dr. Wayne Flintoff (University of Western Ontario, London, ON). Four sublines were derived from the R2 subline by transfection with either RFC, PCFT, FRα, or FRβ, giving rise to PC43-10 (expresses human RFC), 10 R2/PCFT4 (expresses human PCFT),11 RT16 (expresses human FRα), 12 and D4 (expresses FRβ) cells. 12 Isogenic CHO sublines were routinely cultured in α-minimal essential medium (α-MEM) supplemented with 100 units/mL penicillin/100 μg/mL streptomycin, 2 mM L-glutamine and 10% bovine calf serum (Sigma-Aldrich). Transfected sublines of R2 cells were cultured in the presence of 1.5 mg/ml G418. […]
# mM L-glutamine. Cell lines were tested for Mycoplasma by PCR using a Mycloplasma testing kit (Venor™ GeM Mycoplasma Detection Kit, Sigma). Frozen stocks were generated from authenticated Mycoplasma-free cultures.
# (§1) For cell proliferation assays, CHO, KB, NCI-IGROV1 and IOSE 7576 cells were plated in 96-well dishes at densities ranging from 2500-5000 cells/well in 200 μL media and treated with a range of inhibitors spanning 0-1000 nM. Experiments with RT16, D4, IGROV1, IOSE 7576 and KB cells used folate-free RPMI 1640 (FF RPMI) media with 10% dialyzed fetal bovine serum and 100 units/mL penicillin/100 μg/mL streptomycin, supplemented with 2 nM leucovorin and 2 mM L-glutamine. FR-mediated drug uptake was assessed in parallel incubations including 200 nM folic acid. For R2/PCFT4, PC43-10 and R2 CHO cells, the medium was FF-RPMI supplemented with 10% dialyzed fetal bovine serum, 100 units/mL penicillin/100 μg/mL streptomycin, 25 nM leucovorin and 2 mM L-glutamine.
# (§2) Cells were treated over a 96 h period at 37° C with 5% CO2 and relative cell numbers quantified using the CellTiter-blue cell viability assay (Promega, Madison, WI) and a fluorescence plate reader. Raw data were exported to Excel for analysis and the results were plotted using Graphpad Prism 6.0. Determinations of IC50s were made […]
# (§3) assays have been previously described.7, 8, 11, 12, 15-20
# (§4) Using KB cells, additional proliferation assays were performed with metabolite protection in folate- and glycine-free RPMI1640 with 10% dialyzed fetal bovine serum, 2 mM L-glutamine and antibiotics with 2 nM leucovorin to identify the targeted pathway and enzyme(s). 7, 8, 11, 12, 15-20 Inhibitory effects of the novel analogs on de novo thymidylate biosynthesis and de novo purine nucleotide biosynthesis were tested by incubating drugs with thymidine (10 μM) and adenosine (60 μM), respectively. […]
# [2] = system: IOSE 7576 normal ovary cells; test: Cell proliferation assay, IOSE 7576 normal ovary cells; format: cell-based, human; conditions: for IC50: Homo sapiens, 96 h, 0-1000 nM, mean (standard error), 3-5 experiments
# Description: For the tumor cells, except the des-methyl compound 4 with IGROV1 cells, all compounds were inhibitory. […]
# Reagents for biological studies. Leucovorin [(6R,S) 5-formyl tetrahydrofolate] and methotrexate (MTX) was provided by the Drug Development Branch, National Cancer Institute, Bethesda, MD. Other chemicals were obtained from commercial sources in the highest available purities. Pemetrexed (PMX; 1) [N-{4-[2- (2-amino-3,4-dihydro-4-oxo-7H-pyrrolo[2,3-d]pyrimidin-5-yl)ethyl]benzoyl-L-glutamic acid] (Alimta) was purchased from LC Laboratories (Woburn, MA). The syntheses of compounds 2 and 3 were previously described.7, 8 Additional chemicals were purchased from commercial sources in the highest available purities. […]
# KB nasopharyngeal carcinoma cells were obtained from the American Type Culture Collection (Manassas, VA) and IGROV1 (NCI-IGROV1) (passage 5) ovarian adenocarcinoma cells13 were obtained from the Division of Cancer Treatment and Diagnosis, National Cancer Institute (Frederick, MD). Normal ovary cells immortalized with SV40 (IOSE 7576)14 were obtained from the Canadian OvCaRe Cell Bank […]
# (Vancouver, B.C). IGROV1, KB and IOSE 7576 cells were cultured in complete FF-RPMI with 10% fetal bovine serum and 100 units/mL penicillin/100 μg/mL streptomycin, and 2 mM L-glutamine. Cell lines were tested for Mycoplasma by PCR using a Mycloplasma testing kit (Venor™ GeM Mycoplasma Detection Kit, Sigma). Frozen stocks were generated from authenticated Mycoplasma-free cultures.
# as §1, §2, §3
# as §4, with “respectively. Incubation with glycine (130 µM) was used to assess the potential involvement of mitochondrial C1 targeted agents.15 To identify multiple metabolic targets, metabolite additions were added in combination.7, 8, 11, 12, 15-19 Finally, to distinguish targeting between the folate-dependent purine biosynthetic enzymes glycinamide ribonucleotide formyltransferase (GARFTase) and 5-aminoimidazole-4-carboxamide (AICA) ribonucleotide formyltransferase (AICARFTase), co-incubation experiments were performed using AICA hydrochloride (320 μM). 7, 8, 11, 12,” for “respectively.”
# Statistics. The biological data reflect at least three experimental replicates. All statistical comparisons were performed using unpaired t-tests. Biological data are presented as mean values +/- standard errors using data without transformation.
Structure (SMILES),IC50 [1] [nM],IC50 [2] [nM],inhibition of IOSE 7576 cells (in words) [2]
"Nc1nc2[nH]cc(CCc3ccc(C(=O)N[C@@H](CCC(=O)O)C(=O)O)cc3)c2c(=O)[nH]1 [Compound 1, reference compound]",> 1000,627,
Nc1nc2[nH]cc(CCCc3ccc(C(=O)N[C@@H](CCC(=O)O)C(=O)O)cc3)c2c(=O)[nH]1 [Compound 2],> 1000,13.2,
Nc1nc2[nH]cc(CCc3ccc(C(=O)N[C@@H](CCC(=O)O)C(=O)O)s3)c2c(=O)[nH]1 [Compound 3],> 1000,39.3,
Nc1nc2[nH]cc(CCc3ccc(C(=O)N[C@@H](CCC(=O)O)C(=O)O)c(F)c3)c2c(=O)[nH]1 [Compound 4],> 1000,> 1000,inactive
Cc1[nH]c2nc(N)[nH]c(=O)c2c1CCc1ccc(C(=O)N[C@@H](CCC(=O)O)C(=O)O)cc1 [Compound 5],> 1000,> 1000,
Cc1[nH]c2nc(N)[nH]c(=O)c2c1CCCc1ccc(C(=O)N[C@@H](CCC(=O)O)C(=O)O)cc1 [Compound 6],> 1000,824,modestly inhibitory
Cc1[nH]c2nc(N)[nH]c(=O)c2c1CCc1ccc(C(=O)N[C@@H](CCC(=O)O)C(=O)O)s1 [Compound 7],> 1000,> 1000,
Cc1[nH]c2nc(N)[nH]c(=O)c2c1CCc1ccc(C(=O)N[C@@H](CCC(=O)O)C(=O)O)c(F)c1 [Compound 8],> 1000,> 1000,
